Data reported in ChEMBL document CHEMBL4229453, “New lead elements for histamine H3 receptor ligands in the pyrrolo[2,3-d]pyrimidine class” (Bioorg Med Chem Lett, 2018).
Each block holds one molecule with its values, some of them ahead of it.

Legend:
Histamine H3 receptor [1] = biological target: T1, Histamine H3 receptor (Homo sapiens, UniProt Q9Y5N1); assay: Displacement of [3H]Nalpha-methylhistamine from human H3 receptor at 1 uM relative to control
[2] = biological target: Histamine H4 receptor (Homo sapiens) (UniProt Q9H3N8); assay: Displacement of [3H]histamine from human H4 receptor at 1 uM relative to control
Histamine H3 receptor [3] = biological target: T1, Histamine H3 receptor; assay: Displacement of [3H]Nalpha-methylhistamine from human H3 receptor

T1 sequence (Q9Y5N1 whole entry): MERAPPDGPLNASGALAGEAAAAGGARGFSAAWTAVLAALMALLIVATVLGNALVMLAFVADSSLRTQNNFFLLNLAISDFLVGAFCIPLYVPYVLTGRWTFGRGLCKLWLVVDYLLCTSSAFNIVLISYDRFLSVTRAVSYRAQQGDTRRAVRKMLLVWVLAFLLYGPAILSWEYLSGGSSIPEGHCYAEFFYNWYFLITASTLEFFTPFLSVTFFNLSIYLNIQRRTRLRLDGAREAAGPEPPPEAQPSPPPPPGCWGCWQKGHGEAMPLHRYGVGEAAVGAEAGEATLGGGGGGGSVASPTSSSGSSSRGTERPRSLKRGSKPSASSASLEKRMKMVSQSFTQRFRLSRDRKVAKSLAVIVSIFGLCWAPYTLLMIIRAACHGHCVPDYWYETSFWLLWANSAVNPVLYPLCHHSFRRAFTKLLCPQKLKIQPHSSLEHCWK

SMILES: Clc1nc(NCCN2CCOCC2)c2ccn(Cc3cccc4ccccc34)c2n1
inhibition (Histamine H3 receptor [1]): < 80%
inhibition [2]: < 80%

SMILES: CN1CCN(c2nc(Cl)nc3c2ccn3Cc2cccc3ccccc23)CC1
inhibition (Histamine H3 receptor [1]): < 80%
inhibition [2]: < 80%

SMILES: Clc1nc(NCCN2CCOCC2)c2ccn(Cc3ccc4ccccc4c3)c2n1
inhibition (Histamine H3 receptor [1]): < 80%
inhibition [2]: < 80%

SMILES: CN1CCN(c2nc(Cl)nc3c2ccn3Cc2ccccc2)CC1
inhibition (Histamine H3 receptor [1]): < 80%
inhibition [2]: < 80%

SMILES: Clc1nc(NCCN2CCOCC2)c2ccn(Cc3ccccc3)c2n1
inhibition (Histamine H3 receptor [1]): < 80%
inhibition [2]: < 80%

Further lines, results first:

inhibition (Histamine H3 receptor [1]): 95%
inhibition [2]: < 80%
Ki (Histamine H3 receptor [3]): 148 nM
SMILES: Clc1nc(N2CCC(N3CCCCC3)CC2)c2ccn(Cc3cccc4ccccc34)c2n1

inhibition (Histamine H3 receptor [1]): < 80%
inhibition [2]: < 80%
SMILES: Clc1nc(N2CCC(N3CCOCC3)CC2)c2ccn(Cc3ccc4ccccc4c3)c2n1

inhibition (Histamine H3 receptor [1]): 96%
inhibition [2]: < 80%
Ki (Histamine H3 receptor [3]): 490 nM
SMILES: Clc1nc(N2CCC(N3CCCCC3)CC2)c2ccn(Cc3ccccc3)c2n1

inhibition (Histamine H3 receptor [1]): < 80%
inhibition [2]: < 80%
SMILES: CN1CCN(c2nc(Cl)nc3c2ccn3Cc2ccc3ccccc3c2)CC1

inhibition (Histamine H3 receptor [1]): 95%
inhibition [2]: < 80%
Ki (Histamine H3 receptor [3]): 126 nM
SMILES: Clc1nc(N2CCC(N3CCCCC3)CC2)c2ccn(Cc3ccc4ccccc4c3)c2n1

inhibition (Histamine H3 receptor [1]): < 80%
inhibition [2]: < 80%
Ki (Histamine H3 receptor [3]): 1070 nM
SMILES: Clc1nc(N2CCC(N3CCOCC3)CC2)c2ccn(Cc3ccccc3)c2n1

inhibition (Histamine H3 receptor [1]): < 80%
inhibition [2]: < 80%
SMILES: Clc1nc(N2CCC(N3CCOCC3)CC2)c2ccn(Cc3cccc4ccccc34)c2n1
